Source: PubChem BioAssay (NCI)
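Method: 48-hour compound exposure of cells in 96-well plates, five concentrations, linear interpolation of endpoints. TGI: concentration producing complete growth inhibition.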

What was measured:
Assay in all cases: NCI-60 cell line screen, 48 h
[1] = tested on: SW-620 colon
[2] = tested on: MDA-N
[3] = tested on: TK-10 renal
[4] = tested on: HT29 colon
[5] = tested on: HOP-62 NSCLC
[6] = tested on: M14 melanoma
[7] = tested on: SF-295 CNS
[8] = tested on: U251 CNS
[9] = tested on: RXF 393 renal
[10] = tested on: A498 renal
[11] = tested on: SNB-19 CNS
[12] = tested on: COLO 205 colon
[13] = tested on: DU-145 prostate
[14] = tested on: MALME-3M melanoma
[15] = tested on: HCT-116 colon
[16] = tested on: OVCAR-4 ovarian
[17] = tested on: 786-0 renal
[18] = tested on: A549 NSCLC
[19] = tested on: ACHN renal
[20] = tested on: UACC-257 melanoma
[21] = tested on: MOLT-4 leukemia
[22] = tested on: MCF7 breast
[23] = tested on: NCI/ADR-RES ovarian
[24] = tested on: SF-268 CNS
[25] = tested on: SK-MEL-28 melanoma
[26] = tested on: EKVX NSCLC
[27] = tested on: HS 578T breast
[28] = tested on: CCRF-CEM leukemia
[29] = tested on: T-47D breast
[30] = tested on: NCI-H23 lung
[31] = tested on: HCT-15 colon
[32] = tested on: SR leukemia
[33] = tested on: OVCAR-8 ovarian
[34] = tested on: HOP-92 NSCLC
[35] = tested on: SK-OV-3 ovarian
[36] = tested on: RPMI-8226 leukemia
[37] = tested on: CAKI-1 renal
[38] = tested on: PC-3 prostate
[39] = tested on: SK-MEL-5 melanoma
[40] = tested on: NCI-H460 lung
[41] = tested on: KM12 colon
[42] = tested on: OVCAR-5 ovarian
[43] = tested on: UO-31 renal
[44] = tested on: K-562 leukemia
[45] = tested on: HCC-2998 colon
[46] = tested on: HL-60(TB) leukemia
[47] = tested on: IGROV1 ovarian
[48] = tested on: SNB-75 CNS
[49] = tested on: LOX IMVI melanoma
[50] = tested on: NCI-H522 lung
[51] = tested on: MDA-MB-231 breast
[52] = tested on: SN12C renal
[53] = tested on: BT-549 breast
[54] = tested on: OVCAR-3 ovarian
[55] = tested on: UACC-62 melanoma
[56] = tested on: MDA-MB-435
[57] = tested on: SK-MEL-2 melanoma
[58] = tested on: SF-539 CNS

For `COc1cc(/C=C/c2ccc(O)c(OC)c2)cc(OC)c1`, the TGI [1] was > 100000 nM, the TGI [2] was 46000 nM and the TGI [3] was 68300 nM. The TGI [4] was 85800 nM, the TGI [5] was > 100000 nM and the TGI [6] was 70800 nM. The TGI [7] was 54700 nM, the TGI [8] was > 100000 nM and the TGI [9] was > 100000 nM. For the same compound, the TGI [10] was 84400 nM, the TGI [11] was > 100000 nM and the TGI [12] was > 100000 nM. The TGI [13] was 61500 nM, the TGI [14] was > 100000 nM and the TGI [15] was > 100000 nM. For the same compound, the TGI [16] was > 100000 nM, the TGI [17] was > 100000 nM and the TGI [18] was > 100000 nM. The TGI [19] was 80000 nM, the TGI [20] was 80600 nM and the TGI [21] was > 100000 nM. For the same compound, the TGI [22] was > 100000 nM, the TGI [23] was > 100000 nM and the TGI [24] was > 100000 nM. The TGI [25] was > 100000 nM, the TGI [26] was > 100000 nM and the TGI [27] was 59100 nM. For the same compound, the TGI [28] was > 100000 nM, the TGI [29] was > 100000 nM and the TGI [30] was > 100000 nM. For the same compound, the TGI [31] was 45800 nM, the TGI [32] was > 100000 nM and the TGI [33] was > 100000 nM. For the same compound, the TGI [34] was 49700 nM, the TGI [35] was 76900 nM and the TGI [36] was > 100000 nM. For the same compound, the TGI [37] was > 100000 nM, the TGI [38] was 46800 nM and the TGI [39] was 77700 nM. The TGI [40] was 52500 nM, the TGI [41] was 96500 nM and the TGI [42] was > 100000 nM. For the same compound, the TGI [43] was 66200 nM, the TGI [44] was > 100000 nM and the TGI [45] was > 100000 nM. The TGI [46] was 78100 nM, the TGI [47] was > 100000 nM and the TGI [48] was 97000 nM.
`CCOC(=O)C(Cc1ccc(N(CCCl)CCCl)cc1)NC(=O)C(Cc1ccccc1)NC=O` (configuration not stated) showed a TGI [1] of 414 nM, a TGI [2] of 338 nM and a TGI [3] of 275 nM. It also gave a TGI [4] of 289 nM, a TGI [5] of 388 nM and a TGI [49] of 301 nM. The TGI [6] was 310 nM, the TGI [7] was 523 nM and the TGI [8] was 499 nM. For the same compound, the TGI [9] was 226 nM, the TGI [10] was 384 nM and the TGI [11] was 624 nM. It also gave a TGI [12] of 322 nM, a TGI [50] of 167 nM and a TGI [13] of 380 nM. It also gave a TGI [14] of 191 nM, a TGI [51] of 344 nM and a TGI [52] of 294 nM. For the same compound, the TGI [15] was 535 nM, the TGI [16] was 123 nM and the TGI [17] was 303 nM. The TGI [18] was 727 nM, the TGI [19] was 105 nM and the TGI [20] was 540 nM. It also gave a TGI [21] of 161 nM, a TGI [22] of 502 nM and a TGI [23] of 656 nM. It also gave a TGI [24] of 299 nM, a TGI [26] of 538 nM and a TGI [28] of 241 nM. It also gave a TGI [29] of 241 nM, a TGI [30] of 399 nM and a TGI [53] of 756 nM. For the same compound, the TGI [31] was 602 nM, the TGI [32] was 824 nM and the TGI [33] was 527 nM. It also gave a TGI [34] of 419 nM, a TGI [54] of 290 nM and a TGI [55] of 254 nM. It also gave a TGI [35] of 634 nM, a TGI [56] of 338 nM and a TGI [36] of 355 nM. The TGI [37] was 264 nM, the TGI [38] was 406 nM and the TGI [39] was 355 nM. It also gave a TGI [40] of 604 nM, a TGI [41] of 638 nM and a TGI [57] of 989 nM. For the same compound, the TGI [42] was 548 nM, the TGI [43] was 273 nM and the TGI [44] was 365 nM. For the same compound, the TGI [46] was 279 nM, the TGI [58] was 316 nM and the TGI [47] was 222 nM.
